Laboratory results taken from patent US6878747B2, “Systemic formulations containing beta-carotene and derivatives thereof” (priority 2001, dated 2005).

What was measured:
[1] = Soluabilization in THF, Example 12; assay type: physicochemical; conditions: results approximate
Description: All materials and sources were the same as in Example 11.The only additions were the use of 4.3 ml glass shell vials from Electron Microscopy Sciences, 10 ml glass centrifuge tubes from Fisher, and a 1.25 ml glass Hamilton syringe from Fisher.
All of a retinoic acid (1 gram) ampule was poured into a 10 ml glass centrifuge tube and stoppered with a silicon stopper. 7 ml of THF was added to the tube and then shaken by hand. This was performed twice.
All of a 1 gram ampule was poured into a 4.3 ml shell vial and stoppered with a silicon stopper. Using a 1.25 ml Hamilton syringe, 1.0 ml of THF was added to the vial and then shaken by hand. It soluabilized completely.
10 microliters THF from a Hamilton syringe was added to a ampule containing 1 mg of 9-cis retinoic acid. It appeared that complete soluability was achieved.
A 500 mg ampule of retinal was emptied into a 2 ml shell vial, and was completely soluabilized with hand shaking in 0.5 ml of THF.

[2] = Soluabilization in THF, Example 11; assay type: physicochemical; conditions: hand shaking, results approximate
Description: All experimental substances (retinol, retinoic acid, 9-cis retinoic acid, retinal) were from Sigma (St. Louis, Mo.). All experimental substances were provided in sealed ampules.
The solvent, Tetrahydrofuran (stabilized with BHT) was also from Sigma.^1
^1 In the soluabilization experiments described in Examples 11 and 12 a small amount of yellow material appeared on the bottom of the stopper. In addition, since THF is somewhat volatile, the results are approximate.
2 ml shell vials from Electron Microscopy Sciences (Fort Washington, Pa.) Hamilton glass syringes (100 microliter, 250 microliter, 500 microliter) were from Fisher Scientific (Pittsburgh, Pa.). Silicone stoppers and other glassware were also from Fisher Scientific.
All of a retinoic acid ampule (100 mg ) was poured into a 2 ml shell vial and stoppered with a silicon stopper. Using a 500 microliter Hamilton syringe, 500 microliters of THF was added to the vial and then shaken by hand.
a. 25 mg ampule of retinol was poured into a 2 ml shell vial and it soluabilized completely in 250 microliters of THF.
b. 100 mg ampule of retinol was poured into a vial and it soluabilized completely in 0.5 ml of THF.
c. 100 mg ampule of retinol was poured into a vial and it soluabilized completely in 0.1 ml THF.
20 microliters THF from a Hamilton syringe was added to an ampule containing 1 mg of 9-cis retinoic acid. It appeared that complete soluability was achieved.
A 100 mg ampule of retinal was emptied into a 2 ml shell vial, and was completely soluabilized with hand shaking in 100 microliters of THF.

human hepatocytes = test: Absorption of beta-carotene in THF in human hepatocytes; assay type: in vitro ADME; conditions: 10 μM beta-carotene, 0.05% THF, 24 hours incubation; three samples
Description: The following experiment was performed three times to determine the absorption of beta-carotene in THF in human hepatocytes.
Beta-carotene was dissolved in a solution containing 99.9% (w/w) tetrahydrofuran (THF) with 0.025% (w/w) butylated hydroxytoluene (BHT) to obtain a 2000× (20 mM) stock solution. While the incubation media was rapidly stirred, the stock solution was added to create a final 1× dosing solution containing 10 μM beta-carotene and 0.05% THF.
Hepatocytes were isolated and cryopreserved according to the methods described in Li, A. P., et al., Isolation and culturing of hepatocytes from human liver, J. Tiss. Culture Methods, 14:139-146(1992); Li rat and human hepatocytes as multicellular spheroids, In Vitro Cell. Dev. Biol., 28A:673-677 (1992); and Loretz, L. J. et al., Promutagen activation by freshly isolated and cryopreserved rat hepatocytes, Environ. Mol. Mutag., 12(3):335-341. Portions of liver tissue were processed into hepatocytes by collagenase-based digestion of connective tissue, followed by manual and mechanical separation and washing with media. Isolated hepatocytes were counted to determine yield, and viability was measured using Trypan Blue™ exclusion. The viability of the cells was 90%. The cells were resuspended in the plating media described above at a density of 0.7×10^6 cells/mL. […]

[3] = test system: intra-abdominal sepsis in a rat model; conditions: dietary supplementation; beta-carotene 90 mg/kg; cited from earlier work
[4] = test system: human melanoma cell cultures; test: Guanosine then beta-carotene treatment of melanoma cell cultures, Example 10; assay type: cell-based; conditions: 7 days
Description: Guanosine was added to McCoy's 5A modified medium at a concentration of 3 mg/ml. This supplemented medium was added to Leighton tubes after removal of an non-supplemented medium and was replaced every 2 days for 7 days. Beta-carotene in THF was added to McCoy's 5A modified medium at a concentration of 33 mg/ml with a final concentration of 0.5% THF. This supplemented medium was added to the Leighton tubes after removal of guanosine supplemented medium and was replaced every 2 days for an additional 7 day experimental period. At the end of 14 days, the cultures were fixed in methanol and the cover slips were Giemsa stained.

[5] = test system: human melanoma cell cultures; test: Beta-carotene treatment of melanoma cell cultures, Example 9; assay type: cell-based; conditions: beta-carotene 33 mg/ml in medium, 0.5% THF, 7 days
Description: Experiment: Beta-carotene in tetrahydrofuran (THF) was added to McCoy's 5A modified medium at a concentration of 33 mg/ml with a final concentration of 0.5% THF. This supplemented medium was added to Leighton tubes (containing melanoma cells) after removal of un-supplemented medium and was replaced every 2 days during the 7 day experimental period. At the end of 7 days, the cultures were fixed in methanol and the cover slips were Giemsa stained.

[6] = Maximum concentration of beta-carotene dissolving in THF; assay type: physicochemical
Description: The formulation broadly comprises from about 0.1 to about 9.3 mg and preferably from about 1 to about 6 mg of beta-carotene per ml of tetrahydrofuran. The maximum concentration of beta-carotene capable of dissolving in THF is 9.3 mg/ml. Solubility problems arise above this concentration of beta-carotene. Beta-carotene and derivatives thereof for use in the present invention is commercially available from Sigma Chemical Co. or Fisher Scientific Co.

[7] = test system: right calf of a health professional; conditions: in vivo
Description: Retinol, retinal, and retinoic acid, were each soluabilized in THF as described above and used as follows. A fingertip amount of each (e.g. retinoic acid, retinol retinal?) was rubbed into the right calf of a health professional.

[8] = test system: human with male pattern baldness; test: Topical use in human male pattern baldness; assay type: in vivo; conditions: in THF, applied daily to thinning vertex; within 4 months
Description: A human with male pattern baldness applies retinol in THF daily to their thinning vertex.

[9] = beta-carotene 33 mg/ml, 0.5% THF, after 7 days of guanosine 3 mg/ml

## CC1=C(/C=C/C(C)=C\C=C\C(C)=C\C(=O)O)C(C)(C)CCC1 [9-cis retinoic acid]
[1]
  soluability in THF: about 100 mg/ml THF
[2]
  soluability in THF: at least 50 mg/ml THF

## CC1=C(/C=C/C(C)=C/C=C/C(C)=C/C=C/C=C(C)/C=C/C=C(C)/C=C/C2=C(C)CCCC2(C)C)C(C)(C)CCC1 [beta-carotene]
Human hepatocytes
  detection of beta-carotene in the cells (dark regions, light microscope): presence of beta-carotene in the cells
[3]
  protective effect on intra-abdominal sepsis: lesser effect
[4]; [9]
  cell death in culture: did not cause the extensive cell death
  morphology of the surviving cells: most of those had a neuronal morphology
[5]
  cell death in culture compared with control cultures: a large segment of the starting population died
[5]; Giemsa stained
  morphology of the remaining cells: most had triangular morphology and a large nucleus, consistent with neural cells, or were fusiform in shape
[6]
  maximum concentration of beta-carotene capable of dissolving in THF: 9.3 mg/mL

## Nc1nc2c(ncn2[C@@H]2O[C@H](CO)[C@@H](O)[C@H]2O)c(=O)[nH]1 [guanosine, Guanosine]
[4]; guanosine 3 mg/ml in medium
  phenotypic changes in the overall cell population: many cells with an increased nuclear to cytoplasmic ratio

## CC1=C(/C=C/C(C)=C/C=C/C(C)=C/C=O)C(C)(C)CCC1 [retinal]
[1]
  soluability in THF: about 1 gm/ml THF
[2]
  soluability in THF: about 1 gm/ml THF
[7]
  signs of toxicity, topically or systemically: no signs of toxicity

## CC1=C(/C=C/C(C)=C/C=C/C(C)=C/C(=O)O)C(C)(C)CCC1 [retinoic acid]
[7]
  signs of toxicity, topically or systemically: no signs of toxicity

## CC1=C(/C=C/C(C)=C/C=C/C(C)=C/CO)C(C)(C)CCC1 [retinol]
[1]
  soluability in THF: about 1 gm/ml THF
[8]
  new hair growth (hair counts, investigator and patient assessment): significant new hair growth
[2]
  soluability in THF: about 1 gm/ml THF
[7]
  signs of toxicity, topically or systemically: no signs of toxicity

## Vitamin A
[3]
  protective effect on intra-abdominal sepsis: significant protective effect
